In patent US12016357B2, “Glycoside compositions” (CARGILL, INCORPORATED, priority 2015, dated 2024):

How the values were obtained:
[1] = Trained sensory panel rating of sweetness intensity (SEV) and bitterness intensity, Example 1; format: in vivo; details: for Sweetness Avg. / Bitter Avg.: mean of five replicate tests; for Bitter Avg.: caffeine scale 1-15
Protocol: A sensory panel was trained to scale sweetness and bitterness. Reference tasting standards were prepared by dissolving respective standard material (sucrose for sweetness and caffeine for bitterness) into an aqueous citric acid buffer solution at pH 3.1 (distilled water containing 0.1% citric acid and 0.015% sodium citrate) according to the scale values shown in Table 1 below.
Solutions were made in the same citric acid buffer as the reference standard solutions. All solutions were heated to 55° C. for 12 minutes to ensure that all the glycoside material was completely dissolved. The solutions were allowed to cool to room temperature before serving to the panelists. Each solution was given a random 3-digit code and was served to the panelists in random order. Panelists dispensed 2 mL of each solution into their mouths from a pipette. The panelists were then asked to rate the “sweetness intensity” and “bitterness intensity” of the solutions and mark their responses on an un-anchored, 15 cm line scale. The length of the line corresponds to the scale values (1-15) on which the participants were trained. The panelists' responses were measured, compiled, and averaged for each sample. Each sample was tested by approximately 17 to 21 trained panelists.
In between testing samples, the panelists cleansed their palates with water and apple slices. The panelists also waited 5 minutes between each sample. Sweetness and bitter values of rebaudioside D (purity of 94.4%) and rebaudioside M (purity of […]) at varying concentrations were also obtained utilizing a sensory panel in a manner as described above. The sweetness is reported as sweetness and the sweetness is measured as a sucrose equivalent (SEV).
The sweetness and bitterness values of sweetener compositions containing Reb D or Reb M with other glycosides are shown in Tables 3-5. As described above, the samples were tasted by the panelist in random order. The tables show the concentration of the composition tested (ppm) as well as the ratio of one glycoside to another in the composition as a weight percentage.

[2] = Trained sensory panel rating of sweetness and bitterness intensity, Example 2 (measured values, S/B); format: in vivo; details: for Measured Bitterness / Measured Sweetness: citric acid buffer, scale 1-15; for Measured S/B: sweetness/bitterness ratio
Protocol: A trained sensory panel evaluated solutions of each rebaudioside D, rebaudioside M, rebaudioside G, rebaudioside O, rebaudioside N and rebaudioside E at 400 ppm and 600 ppm. Solutions were made in a citric acid buffer as the reference standard solutions described in Example 1. All solutions were heated to 55° C. for 12 minutes to ensure that all the glycoside material was completely dissolved. The solutions were allowed to cool to room temperature before serving to the panelists. Each solution was given a random 3-digit code and was served to the panelists in random order. Panelists dispensed 2 mL of each solution into their mouths from a pipette. The panelists were then asked to rate the “sweetness intensity” and “bitterness intensity” of the solutions and mark their responses on an un-anchored, 15 cm line scale. The length of the line corresponds to the scale values (1-15) on which the participants were trained. The panelists' responses were measured, compiled, and averaged for each sample (measured sweetness values and bitterness values). In between testing samples, the panelists cleansed their palates with water and apple slices. The panelists also waited 5 minutes between each sample. Rebaudioside D (purity of 94.4%) was obtained from ChromaDex™ Corp and rebaudioside M (purity 99.3%) was obtained from Cargill, Incorporated. Rebaudioside G (purity of 96.0%), Rebaudioside O (purity of 97.9%), Rebaudioside N (purity of 93.5%), Rebaudioside E (purity of 97.2%) were each obtained from ChromaaDex™ Corp. […] Also shown in Table 7 is the sweetness/bitterness ratios (S/B).

[3] = 400 ppm in citric acid buffer pH 3.1
[4] = 600 ppm in citric acid buffer pH 3.1
[5] = total blend 400 ppm, citric acid buffer pH 3.1

| SMILES | Sweetness Avg. [1, 3] | Bitter Avg. [1, 3] | Sweetness Avg. [1, 4] | Bitter Avg. [1, 4] | Measured Bitterness ([2]; 400 ppm) | Measured Sweetness ([2]; 400 ppm) | Measured S/B ([2]; 400 ppm) | Measured Bitterness ([2]; 600 ppm) | Measured Sweetness ([2]; 600 ppm) | Measured S/B ([2]; 600 ppm) | Bitter [1, 5] | Sweetness [1, 5] |
| --- | --- | --- | --- | --- | --- | --- | --- | --- | --- | --- | --- | --- |
| C=C1C[C@@]23CC[C@H]4[C@@](C)(CCC[C@@]4(C)C(=O)O[C@@H]4O[C@H](CO)[C@@H](O)[C@H](O)[C@H]4O[C@@H]4O[C@H](CO)[C@@H](O)[C@H](O)[C@H]4O)[C@@H]2CC[C@]1(O[C@@H]1O[C@H](CO)[C@@H](O)[C@H](O[C@@H]2O[C@H](CO)[C@@H](O)[C@H](O)[C@H]2O)[C@H]1O[C@@H]1O[C@H](CO)[C@@H](O)[C@H](O)[C@H]1O)C3 [Reb D, Rebaudioside D] | 7.1 SEV | 3.6 | 8.3 SEV | 4.2 | 3.51 | 7.08 | 2.05 | 3.80 | 8.31 | 2.23 |  |  |
| C=C1C[C@@]23CC[C@H]4[C@@](C)(CCC[C@@]4(C)C(=O)O[C@@H]4O[C@H](CO)[C@@H](O)[C@H](O)[C@H]4O[C@@H]4O[C@H](CO)[C@@H](O)[C@H](O)[C@H]4O)[C@@H]2CC[C@]1(O[C@@H]1O[C@H](CO)[C@@H](O)[C@H](O)[C@H]1O[C@@H]1O[C@H](CO)[C@@H](O)[C@H](O)[C@H]1O)C3 [Reb E, Rebaudioside E] |  |  |  |  | 2.93 | 4.53 | 1.55 | 2.98 | 6.29 | 2.11 |  |  |
| C=C1C[C@@]23CC[C@H]4[C@@](C)(CCC[C@@]4(C)C(=O)O[C@@H]4O[C@H](CO)[C@@H](O)[C@H](O)[C@H]4O)[C@@H]2CC[C@]1(O[C@@H]1O[C@H](CO)[C@@H](O)[C@H](O[C@@H]2O[C@H](CO)[C@@H](O)[C@H](O)[C@H]2O)[C@H]1O)C3 [Reb G, Rebaudioside G] |  |  |  |  | 2.53 | 2.17 | 0.86 | 2.30 | 1.98 | 0.84 |  |  |
| C=C1C[C@@]23CC[C@H]4[C@@](C)(CCC[C@@]4(C)C(=O)O[C@@H]4O[C@H](CO)[C@@H](O)[C@H](O[C@@H]5O[C@H](CO)[C@@H](O)[C@H](O)[C@H]5O)[C@H]4O[C@@H]4O[C@H](CO)[C@@H](O)[C@H](O)[C@H]4O)[C@@H]2CC[C@]1(O[C@@H]1O[C@H](CO)[C@@H](O)[C@H](O[C@@H]2O[C@H](CO)[C@@H](O)[C@H](O)[C@H]2O)[C@H]1O[C@@H]1O[C@H](CO)[C@@H](O)[C@H](O)[C@H]1O)C3 [Reb M, Rebaudioside M] | 7.7 SEV | 3.8 | 8.4 SEV | 4.2 | 3.65 | 7.76 | 2.14 | 3.76 | 8.38 | 2.26 |  |  |
| C=C1C[C@@]23CC[C@H]4[C@@](C)(CCC[C@@]4(C)C(=O)O[C@@H]4O[C@H](CO)[C@@H](O)[C@H](O[C@@H]5O[C@H](CO)[C@@H](O)[C@H](O)[C@H]5O)[C@H]4O[C@@H]4O[C@@H](C)[C@H](O)[C@@H](O)[C@H]4O)[C@@H]2CC[C@]1(O[C@@H]1O[C@H](CO)[C@@H](O)[C@H](O[C@@H]2O[C@H](CO)[C@@H](O)[C@H](O)[C@H]2O)[C@H]1O[C@@H]1O[C@H](CO)[C@@H](O)[C@H](O)[C@H]1O)C3 [Reb N, Rebaudioside N] |  |  |  |  | 3.03 | 7.44 | 2.45 | 3.25 | 7.709 | 2.37 |  |  |
| C=C1C[C@@]23CC[C@H]4[C@@](C)(CCC[C@@]4(C)C(=O)O[C@@H]4O[C@H](CO)[C@@H](O)[C@H](O[C@@H]5O[C@H](CO)[C@@H](O)[C@H](O)[C@H]5O)[C@H]4O[C@@H]4O[C@@H](C)[C@H](O)[C@@H](O[C@@H]5O[C@H](CO)[C@@H](O)[C@H](O)[C@H]5O)[C@H]4O)[C@@H]2CC[C@]1(O[C@@H]1O[C@H](CO)[C@@H](O)[C@H](O[C@@H]2O[C@H](CO)[C@@H](O)[C@H](O)[C@H]2O)[C@H]1O[C@@H]1O[C@H](CO)[C@@H](O)[C@H](O)[C@H]1O)C3 [Reb O, Rebaudioside O] |  |  |  |  | 2.98 | 7.47 | 2.51 | 3.23 | 7.669 | 2.37 | 3.1 | 7.2 SEV |
